In brackets after ≈: the same amount, converted by molar mass. Like-named read-outs stand apart in the source and are kept apart here.
Tests used:
gram negative bacteria = assay: In vitro anti-bacterial activity assay (broth dilution MIC), gram negative bacteria; type: cell-based, E. coli
How it was run: (§1)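 Broth dilution MIC following CLSI M7-A2: compounds serially diluted, log-phase test strains added to final ~5×10^5 CFU/ml, incubated ~18 hours at 35° C in ambient air. Plates read on microplate reader or visually; MIC is lowest concentration inhibiting growth.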

gram positive bacteria = assay: In vitro anti-bacterial activity assay (broth dilution MIC), gram positive bacteria; type: cell-based, S. aureus; details: 18 h
How it was run: as §1

3T3 fibroblast cells = assay: In vitro phototoxicity assay (neutral red; UV light-treated vs dark control plates); type: cell-based; details: for Photo Toxicity UV Tox50: UV light 50 minutes; for Photo Toxicity Dark Tox50: dark control plate
How it was run: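 Neutral red viability readout (A535 after EtOH/acetic acid extraction) compares paired plates: one exposed 50 min to UV at 1.6–1.8 mW/cm^2, one held in darkness, both dosed with compound in HBSS and recovered overnight. 3T3 fibroblast cells used; phototoxicity taken as the difference.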

[1] = Mammalian cytotoxicity assay (resazurin), COS-1 cells; type: cell-based; details: African green monkey, read-out: Cytotox. COS-1
How it was run: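 Cells seeded overnight at 37° C., 5% CO2, then exposed to serial compound dilutions for 24 hours. Medium replaced with resazurin (0.042 mg/ml in PBS with Ca and Mg) for 2 hours plus 30 minutes dark at room temperature; fluorescence read at ex 535/em 590 nm, IC50 taken as 50% growth inhibition.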

in vitro = type: cell-based; details: Chinese hamster, Cytotox. CHO-K1
[2] = Escherichia coli, 18 h, E. coli D1 209, read-out: Median MIC's G− E. coli D1 209
[3] = Escherichia coli, 18 h, E. coli MG 1655, read-out: Median MIC's G− E. coli MG 1655
[4] = Escherichia coli, ATCC25922, 18 h, E. coli ATCC 25922, read-out: Median MIC's G− E. coli ATCC 25922
[5] = Pseudomonas aeruginosa, 18 h, P. aeruginosa K201 PAO6609, read-out: Median MIC's G− P. aeruginosa K201 PAO6609
[6] = Staphylococcus aureus, S. aureus MRSA5, read-out: Median MIC's G+ S. aureus MRSA5
[7] = Staphylococcus aureus, S. aureus RN450, read-out: Median MIC's G+ S. aureus RN450
[8] = Streptococcus pneumoniae, S. pneumoniae 157E-Strep, read-out: Median MIC's G+ S. pneumoniae 157E-Strep

SMILES	MIC (gram negative bacteria; [2]) [µg/mL]	MIC (gram negative bacteria; [3]) [µg/mL]	MIC (gram negative bacteria; [4]) [µg/mL]	MIC (gram negative bacteria; [5]) [µg/mL]	MIC (gram positive bacteria; [6]) [µg/mL]	MIC (gram positive bacteria; [7]) [µg/mL]	MIC (gram positive bacteria; [8]) [µg/mL]	Photo Toxicity UV Tox50 (3T3 fibroblast cells) [µM]	Photo Toxicity Dark Tox50 (3T3 fibroblast cells) [µM]	IC50 at 24 h [1] [µM]	IC50 at 24 h (in vitro) [µM]
CN(C)[C@@H]1C(O)=C(C(N)=O)C(=O)[C@@]2(O)C(O)=C3C(=O)c4c(O)ccc(-c5cccc(C(=O)NCCN6CCCC6)c5)c4C[C@H]3C[C@@H]12 [CR]	64 (≈ 101 µM)	16 (≈ 25.4 µM)	64 (≈ 101 µM)	64 (≈ 101 µM)	16 (≈ 25.4 µM)	1 (≈ 1.59 µM)	0.25 (≈ 0.396 µM)	>127.91	>127.91	> 39.6	> 39.6
CN(C)CCNCc1cccc(-c2ccc(O)c3c2C[C@H]2C[C@H]4[C@H](N(C)C)C(O)=C(C(N)=O)C(=O)[C@@]4(O)C(O)=C2C3=O)c1 [CS]	64 (≈ 108 µM)	2 (≈ 3.39 µM)	4 (≈ 6.77 µM)	64 (≈ 108 µM)	8 (≈ 13.5 µM)	0.06 (≈ 0.102 µM)	0.06 (≈ 0.102 µM)	>139.98	>139.98	> 140	> 140
CN(C)CCN(C)Cc1cccc(-c2ccc(O)c3c2C[C@H]2C[C@H]4[C@H](N(C)C)C(O)=C(C(N)=O)C(=O)[C@@]4(O)C(O)=C2C3=O)c1 [CT]	4 (≈ 6.61 µM)	2 (≈ 3.31 µM)	2 (≈ 3.31 µM)	64 (≈ 106 µM)	4 (≈ 6.61 µM)	0.0625 (≈ 0.103 µM)	0.06 (≈ 0.0992 µM)	>126.03	>126.03	> 126	> 126
CN(C)CCCN(C)Cc1cccc(-c2ccc(O)c3c2C[C@H]2C[C@H]4[C@H](N(C)C)C(O)=C(C(N)=O)C(=O)[C@@]4(O)C(O)=C2C3=O)c1 [CU]	32 (≈ 51.7 µM)	8 (≈ 12.9 µM)	8 (≈ 12.9 µM)	32 (≈ 51.7 µM)	16 (≈ 25.9 µM)	0.5 (≈ 0.808 µM)	0.125 (≈ 0.202 µM)	>123.6	>123.6	> 124	> 124
CN(C)CCCCNCc1cccc(-c2ccc(O)c3c2C[C@H]2C[C@H]4[C@H](N(C)C)C(O)=C(C(N)=O)C(=O)[C@@]4(O)C(O)=C2C3=O)c1 [CV]	64 (≈ 103 µM)	64 (≈ 103 µM)	64 (≈ 103 µM)	64 (≈ 103 µM)	32 (≈ 51.7 µM)	2 (≈ 3.23 µM)	4 (≈ 6.46 µM)	>134.59	>134.59	> 135	> 135
CN(C)CCCCN(C)Cc1cccc(-c2ccc(O)c3c2C[C@H]2C[C@H]4[C@H](N(C)C)C(O)=C(C(N)=O)C(=O)[C@@]4(O)C(O)=C2C3=O)c1 [CW]	4 (≈ 6.32 µM)	2 (≈ 3.16 µM)	2 (≈ 3.16 µM)	64 (≈ 101 µM)	8 (≈ 12.6 µM)	0.06 (≈ 0.0948 µM)	0.06 (≈ 0.0948 µM)	>132.05	>132.05	> 132	> 132
CN(C)CCCNCc1cccc(-c2ccc(O)c3c2C[C@H]2C[C@H]4[C@H](N(C)C)C(O)=C(C(N)=O)C(=O)[C@@]4(O)C(O)=C2C3=O)c1 [CX]	32 (≈ 52.9 µM)	16 (≈ 26.5 µM)	16 (≈ 26.5 µM)	64 (≈ 106 µM)	8 (≈ 13.2 µM)	0.5 (≈ 0.827 µM)	0.25 (≈ 0.413 µM)	>137.23	>137.23	> 137	> 137
CN(C)CCNCc1ccc(-c2ccc(O)c3c2C[C@H]2C[C@H]4[C@H](N(C)C)C(O)=C(C(N)=O)C(=O)[C@@]4(O)C(O)=C2C3=O)o1 [CY]	64 (≈ 110 µM)	2 (≈ 3.44 µM)	4 (≈ 6.89 µM)	64 (≈ 110 µM)	64 (≈ 110 µM)	0.25 (≈ 0.431 µM)	0.06 (≈ 0.103 µM)	>142.02	>142.02	> 142	> 142
CN(C)CCN(C)Cc1ccc(-c2ccc(O)c3c2C[C@H]2C[C@H]4[C@H](N(C)C)C(O)=C(C(N)=O)C(=O)[C@@]4(O)C(O)=C2C3=O)o1 [CZ]	16 (≈ 26.9 µM)	4 (≈ 6.73 µM)	4 (≈ 6.73 µM)	64 (≈ 108 µM)	16 (≈ 26.9 µM)	0.06 (≈ 0.101 µM)	0.06 (≈ 0.101 µM)	>137.77	>137.77	> 13.8	> 13.8

Source: US20100022483A1, “Substituted Tetracycline Compounds” (Paratek Pharmaceuticals, Inc., priority 2008, published 2010)
